Data reported in patent US20170081383A1, “MELANOCORTIN ANALOGS HAVING ENHANCED ACTIVITY AND TRANSPORT” (Tensive Controls Inc., priority 2012, published 2017).
“Also recorded” adds a separate entry of the source. Positions of bridges follow the written chain, without caps; N, C: chain ends. Non-standard residues stand in square brackets, D forms with d. β2Val = β2-Val (beta2-Val), beta-amino acid; d2Nal = N[C@H](Cc1ccc2ccccc2c1)C(=O)O; β3hV = CC(C)[C@H](N)CC(=O)O; β3hP = O=C(O)C[C@@H]1CCCN1; Nle = CCCC[C@H](N)C(=O)O

Test system: LPS-induced cachexia in rats
Test: Lipopolysaccharide (LPS)-induced cachexia assay
Format: in vivo, rat
Settings: for blood-brain barrier transport (concluded from peripheral vs ICV activity) / anti-cachectic activity after ICV (IVt) administration (in words): LPS model; for anti-cachectic activity after ICV (IVt) administration (in words): intracerebroventricular administration; for peripheral (IP) anti-cachexia activity, feeding (in words): peripheral / intraperitoneal administration after LPS
Protocol: The LPS model uses rats were maintained on a 12 h light/dark schedule with ad libitum access to food and water. Animals were handled daily for a minimum of three consecutive days to decrease non-specific handling stress. On the day of the experiment, individually housed animals received intraperitoneal injections of LPS dissolved in 0.5% low-endotoxin BSA, 0.9% saline or 0.5% BSA in 0.9% saline alone, and were returned to their home cage. The drug or control was administered (ICV, IP, or PO, depending on the type of study) 1-hour after LPS injection.
In the experiments described herein, a series of melanocortin receptor antagonist peptides were examined in a bacterial endotoxin inducing cachexia assay. For this assay, a rat is challenged with a single peripheral injection of lipopolysaccharide (LPS). LPS is a heat-stable lipo-polysaccharide, the major component of the outer membrane (capsule) of gram negative bacteria. In non-capsulated strains, it appears as a cell surface […]. LPS produces a strong immune response, including secretion of the proinflammatory cytokines Tumor Necrosis Factor α (TNFα) and interleukin-1 (IL-1). Proinflammatory cytokines are known factors that induce cachexia.
Rats are maintained on a 12-hour light/dark cycle. Animals are handled daily for a minimum of 5 consecutive days to acclimate them to the handling required for the experiment. […] On the day of the experiment, individually housed animals receive intraperitoneal (IP) injections of LPS dissolved in 0.5% low-endotoxin BSA, 0.9% saline or 0.5% BSA in 0.9% saline alone, and returned in their home cage. Melanocortin receptor antagonist peptides were administered (IP or by gavage, depending on the type of study) one hour after the LPS injection. The extent of cachexia is measured by the reduction in food intake, measured every two hours. The cachexia typically lasts only a single day. However, rats lose up to 5% of their body weight during a 12-hour light cycle, making up this loss plus food needed for normal growth during the 12-hour dark cycle. Thus, failure to eat appropriately during a single dark cycle is determinable from the animal's weight and any changes thereof.
A series of melanocortin receptor antagonist peptides were examined in a bacterial toxin inducing cachexia assay. In this assay, a rat was challenged with a single peripheral injection of lipopolysaccharide (LPS), a bacterial toxin that rapidly induces acute cachexia. The extent of cachexia was measured as a reduction in food intake, measured every two hours. The cachexia typically lasts only a single day.

## Ac-Nle-c[D-Asp-Pro-D-Nal(2′)-Arg-Trp-D-Lys]-D-Pro-D-Val-NH2 (Ac-[Nle][dD]P[d2Nal]RW[dK][dP][dV]-NH2; lactam 2-7) [TCMCB04]
  blood-brain barrier transport (concluded from peripheral vs ICV activity): eliminated blood brain barrier transport; also recorded: no transport across the blood-brain barrier
  anti-cachectic activity after ICV (IVt) administration (in words): superior anti-cachectic activity compared to the parent compound
  peripheral (IP) anti-cachexia activity, feeding (in words): No difference was observed between the peptide and saline

## Ac-Nle-c[Asp-Pro-D-Nal(2′)-Arg-Trp-Lys]-β^3-Pro-β^3-Pro-NH2 (Ac-[Nle]DP[d2Nal]RWK[β3hP][β3hP]-NH2; lactam 2-7; SMILES CCCC[C@H](NC(C)=O)C(=O)N[C@H]1CC(=O)NCCCC[C@@H](C(=O)N2CCC[C@H]2CC(=O)N2CCC[C@H]2CC(N)=O)NC(=O)[C@H](Cc2c[nH]c3ccccc23)NC(=O)[C@H](CCCNC(=N)N)NC(=O)[C@@H](Cc2ccc3ccccc3c2)NC(=O)[C@@H]2CCCN2C1=O) [TCMCB10]
  blood-brain barrier transport (concluded from peripheral vs ICV activity): failure to cross the blood-brain barrier
  anti-cachectic activity after ICV (IVt) administration (in words): maintaining direct inhibitory effects
  peripheral (IP) anti-cachexia activity, feeding (in words): no peripheral activity

## Ac-Nle-c[Asp-Pro-D-Nal(2′)-Arg-Trp-Lys]-β^3-Pro-β^3-Val-NH2 (Ac-[Nle]DP[d2Nal]RWK[β3hP][β3hV]-NH2; lactam 2-7) [TCMCB06]
0.2 mg/kg intraperitoneally, FIG. 8A
  food intake, 24 hours after LPS challenge: ate significantly less food than the other drug candidates
0.2 mg/kg intraperitoneally, FIG. 8B
  body weight (percent of pre-LPS baseline), 24 hours after LPS challenge: no weight gain
ICV administration, LPS-induced cachexia
  molar activity relative to TCMCB02: 10 fold
  anti-cachectic activity after ICV (IVt) administration (in words): molar activity equivalent to TCMCB02
  peripheral (IP) anti-cachexia activity, feeding (in words): only TCMCB05 (β^3-Pro-β^2-Val) had IP anti-cachexia activity; also recorded: only TCMCB05 had peripheral anti-cachexia activity

## Ac-Nle-c[Asp-Pro-D-Nal(2′)-Arg-Trp-Lys]-β^2-Val-β^3-Pro-NH2 (Ac-[Nle]DP[d2Nal]RWK[β2Val][β3hP]-NH2; lactam 2-7) [TCMCB08]
  blood-brain barrier transport (concluded from peripheral vs ICV activity): good blood-brain barrier transport
  peripheral (IP) anti-cachexia activity, feeding (in words): has peripheral activity
Gavage (intra-gastric) administration, LPS cachexia
  oral activity / gastrointestinal transport (in words): not as much oral activity as TCMCB07; also recorded: no gastrointestinal transport

## Ac-Nle-c[Asp-His-D-Nal(2′)-Arg-Trp-Lys]-D-Pro-D-Val-NH2 (Ac-[Nle]DH[d2Nal]RWK[dP][dV]-NH2; lactam 2-7; SMILES CCCC[C@H](NC(C)=O)C(=O)N[C@H]1CC(=O)NCCCC[C@@H](C(=O)N2CCC[C@@H]2C(=O)N[C@@H](C(N)=O)C(C)C)NC(=O)[C@H](Cc2c[nH]c3ccccc23)NC(=O)[C@H](CCCNC(=N)N)NC(=O)[C@@H](Cc2ccc3ccccc3c2)NC(=O)[C@H](Cc2c[nH]cn2)NC1=O) [TCMCB03]
  blood-brain barrier transport (concluded from peripheral vs ICV activity): failed to cross the blood brain barrier; also recorded: less blood-brain barrier transport activity
  anti-cachectic activity after ICV (IVt) administration (in words): enhanced anti-cachexia; also recorded: superior anti-cachexia activity following ICV administration
  peripheral (IP) anti-cachexia activity, feeding (in words): did not possess as good peripheral

## Ac-Nle-c[Asp-Pro-D-Nal(2′)-Arg-Trp-Lys]-D-Val-D-Pro-OH (Ac-[Nle]DP[d2Nal]RWK[dV][dP]-OH; lactam 2-7) [TCMCB07A]
  peripheral (IP) anti-cachexia activity, feeding (in words): equivalent stimulation of feeding

## Ac-Nle-c[Asp-Pro-D-Nal(2′)-Arg-Trp-Lys]-β^3-Val-β^3-Pro-NH2 (Ac-[Nle]DP[d2Nal]RWK[β3hV][β3hP]-NH2; lactam 2-7) [TCMCB09]
  peripheral (IP) anti-cachexia activity, feeding (in words): inactive peripherally
